Experimental data published in patent US8883681B2, “Sugarcane harvest aid” (FMC Corporation, priority 2004, dated 2014).

System: sugarcane, variety RB 81-5156 (plant-cane)
Assay: Evaluation of carfentrazone-ethyl as a sugarcane ripener (field trial, stems harvested 0-45 DAA; % POL, % BRIX, % PURITY)
Assay type: in vivo
Details: average of four replications
Description: The following example further illustrates the present invention, but, of course, should not be construed as in any way limiting its scope. The example includes a protocol for the evaluation of certain PPO-inhibiting compounds as ripeners on sugarcane crops, and sets forth certain data indicating the effectiveness of such compounds. Yield is measured in % POL, which is the percent saccharose content in the pressed broth or the cane. Purity and % BRIX (defined as total sugar content including glucose, fructose, saccharose and minerals) are also measures of crop yield, although the saccharose content is of primary concern.
The trial was performed on sugarcane, variety RB 81-5156 (plant-cane). The sugarcane was planted with spacing of 1.40 m between rows, using 30 kg/ha of N; 100 kg/ha of P2O5 and 80 gk/ha of K2O as basic fertilizers, complemented by a covering application of 30 kg/ha of N.
The application of ripeners was performed with pressurized back-pack sprayers, with flat fan nozzle 110.01. The flow was 65 l/ha and the pressure was 35 lb/in^2.
The experimental design used randomized plots with 6 treatments and 4 replications. The size of each experimental plot was 126 m^2 (6 spacing lines of 1.40 m per 15 m of length).
The climatic conditions at the time of the ripener applications were: average temperature of 27° C.; air relative humidity of 73%, wind speed of 4 km/hour.
One linear meter of stems was harvested in each experimental plot at 0 (zero), 15, 30 and 45 days after application (DAA) of the ripener. The sugar was extracted from these stems and submitted for GC and refractometer analysis of percent saccharose, glucose, fructose and minerals corresponding to % POL, % BRIX and % PURITY.
The results, shown as an average of four replications, were compared with results observed in the same trials with trinexapac-ethyl (Moddus).

CCOC(=O)C(Cl)Cc1cc(-n2nc(C)n(C(F)F)c2=O)c(F)cc1Cl (stereo not drawn) [Carfentrazone-ethyl, ethyl α,2-dichloro-5-[4-(difluoromethyl)-4,5-dihydro-3-methyl-5-oxo-1H-1,2,4-triazol-1-yl]-4-fluorobenzenepropanoate]
% BRIX in Pressed Broth of Sugarcane Crop after Application of Ripeners (30 g ai/ha, 0 DAA): 14.80%
% POL in Pressed Broth of Sugarcane Crop after Application of Ripeners (30 g ai/ha, 0 DAA): 11.90%
% POL in the Cane of Sugarcane Crop after Application of Ripeners (30 g ai/ha, 0 DAA): 10.38%
% PURITY in Pressed Broth of Sugarcane Crop after Application of Ripeners (30 g ai/ha, 0 DAA): 78.48%
% BRIX in Pressed Broth of Sugarcane Crop after Application of Ripeners (30 g ai/ha, 15 DAA): 15.40%
% POL in Pressed Broth of Sugarcane Crop after Application of Ripeners (30 g ai/ha, 15 DAA): 12.35%
% POL in the Cane of Sugarcane Crop after Application of Ripeners (30 g ai/ha, 15 DAA): 10.68%
% PURITY in Pressed Broth of Sugarcane Crop after Application of Ripeners (30 g ai/ha, 15 DAA): 79.10%
% BRIX in Pressed Broth of Sugarcane Crop after Application of Ripeners (30 g ai/ha, 30 DAA): 16.15%
% POL in Pressed Broth of Sugarcane Crop after Application of Ripeners (30 g ai/ha, 30 DAA): 12.75%
% POL in the Cane of Sugarcane Crop after Application of Ripeners (30 g ai/ha, 30 DAA): 10.75%
% PURITY in Pressed Broth of Sugarcane Crop after Application of Ripeners (30 g ai/ha, 30 DAA): 79.50%
% BRIX in Pressed Broth of Sugarcane Crop after Application of Ripeners (30 g ai/ha, 45 DAA): 16.40%
% POL in Pressed Broth of Sugarcane Crop after Application of Ripeners (30 g ai/ha, 45 DAA): 12.20%
% POL in the Cane of Sugarcane Crop after Application of Ripeners (30 g ai/ha, 45 DAA): 10.75%
% PURITY in Pressed Broth of Sugarcane Crop after Application of Ripeners (30 g ai/ha, 45 DAA): 79.35%
% BRIX in Pressed Broth of Sugarcane Crop after Application of Ripeners (40 g ai/ha, 0 DAA): 14.50%
% POL in Pressed Broth of Sugarcane Crop after Application of Ripeners (40 g ai/ha, 0 DAA): 12.55%
% POL in the Cane of Sugarcane Crop after Application of Ripeners (40 g ai/ha, 0 DAA): 10.38%
% PURITY in Pressed Broth of Sugarcane Crop after Application of Ripeners (40 g ai/ha, 0 DAA): 78.90%
% BRIX in Pressed Broth of Sugarcane Crop after Application of Ripeners (40 g ai/ha, 15 DAA): 15.50%
% POL in Pressed Broth of Sugarcane Crop after Application of Ripeners (40 g ai/ha, 15 DAA): 13.18%
% POL in the Cane of Sugarcane Crop after Application of Ripeners (40 g ai/ha, 15 DAA): 10.63%
% PURITY in Pressed Broth of Sugarcane Crop after Application of Ripeners (40 g ai/ha, 15 DAA): 80.28%
% BRIX in Pressed Broth of Sugarcane Crop after Application of Ripeners (40 g ai/ha, 30 DAA): 16.98%
% POL in Pressed Broth of Sugarcane Crop after Application of Ripeners (40 g ai/ha, 30 DAA): 13.70%
% POL in the Cane of Sugarcane Crop after Application of Ripeners (40 g ai/ha, 30 DAA): 10.98%
% PURITY in Pressed Broth of Sugarcane Crop after Application of Ripeners (40 g ai/ha, 30 DAA): 81.20%
% BRIX in Pressed Broth of Sugarcane Crop after Application of Ripeners (40 g ai/ha, 45 DAA): 16.90%
% POL in Pressed Broth of Sugarcane Crop after Application of Ripeners (40 g ai/ha, 45 DAA): 13.58%
% POL in the Cane of Sugarcane Crop after Application of Ripeners (40 g ai/ha, 45 DAA): 11.00%
% PURITY in Pressed Broth of Sugarcane Crop after Application of Ripeners (40 g ai/ha, 45 DAA): 81.43%
% BRIX in Pressed Broth of Sugarcane Crop after Application of Ripeners (60 g ai/ha, 0 DAA): 14.60%
% POL in Pressed Broth of Sugarcane Crop after Application of Ripeners (60 g ai/ha, 0 DAA): 12.55%
% POL in the Cane of Sugarcane Crop after Application of Ripeners (60 g ai/ha, 0 DAA): 10.63%
% PURITY in Pressed Broth of Sugarcane Crop after Application of Ripeners (60 g ai/ha, 0 DAA): 79.35%
% BRIX in Pressed Broth of Sugarcane Crop after Application of Ripeners (60 g ai/ha, 15 DAA): 15.20%
% POL in Pressed Broth of Sugarcane Crop after Application of Ripeners (60 g ai/ha, 15 DAA): 13.58%
% POL in the Cane of Sugarcane Crop after Application of Ripeners (60 g ai/ha, 15 DAA): 11.38%
% PURITY in Pressed Broth of Sugarcane Crop after Application of Ripeners (60 g ai/ha, 15 DAA): 81.85%
% BRIX in Pressed Broth of Sugarcane Crop after Application of Ripeners (60 g ai/ha, 30 DAA): 17.75%
% POL in Pressed Broth of Sugarcane Crop after Application of Ripeners (60 g ai/ha, 30 DAA): 14.50%
% POL in the Cane of Sugarcane Crop after Application of Ripeners (60 g ai/ha, 30 DAA): 12.45%
% PURITY in Pressed Broth of Sugarcane Crop after Application of Ripeners (60 g ai/ha, 30 DAA): 83.15%
% BRIX in Pressed Broth of Sugarcane Crop after Application of Ripeners (60 g ai/ha, 45 DAA): 17.45%
% POL in Pressed Broth of Sugarcane Crop after Application of Ripeners (60 g ai/ha, 45 DAA): 14.35%
% POL in the Cane of Sugarcane Crop after Application of Ripeners (60 g ai/ha, 45 DAA): 12.38%
% PURITY in Pressed Broth of Sugarcane Crop after Application of Ripeners (60 g ai/ha, 45 DAA): 83.15%
% BRIX in Pressed Broth of Sugarcane Crop after Application of Ripeners (80 g ai/ha, 0 DAA): 14.50%
% POL in Pressed Broth of Sugarcane Crop after Application of Ripeners (80 g ai/ha, 0 DAA): 12.45%
% POL in the Cane of Sugarcane Crop after Application of Ripeners (80 g ai/ha, 0 DAA): 10.80%
% PURITY in Pressed Broth of Sugarcane Crop after Application of Ripeners (80 g ai/ha, 0 DAA): 80.05%
% BRIX in Pressed Broth of Sugarcane Crop after Application of Ripeners (80 g ai/ha, 15 DAA): 15.80%
% POL in Pressed Broth of Sugarcane Crop after Application of Ripeners (80 g ai/ha, 15 DAA): 14.08%
% POL in the Cane of Sugarcane Crop after Application of Ripeners (80 g ai/ha, 15 DAA): 11.93%
% PURITY in Pressed Broth of Sugarcane Crop after Application of Ripeners (80 g ai/ha, 15 DAA): 82.90%
% BRIX in Pressed Broth of Sugarcane Crop after Application of Ripeners (80 g ai/ha, 30 DAA): 17.90%
% POL in Pressed Broth of Sugarcane Crop after Application of Ripeners (80 g ai/ha, 30 DAA): 15.05%
% POL in the Cane of Sugarcane Crop after Application of Ripeners (80 g ai/ha, 30 DAA): 13.25%
% PURITY in Pressed Broth of Sugarcane Crop after Application of Ripeners (80 g ai/ha, 30 DAA): 84.45%
% BRIX in Pressed Broth of Sugarcane Crop after Application of Ripeners (80 g ai/ha, 45 DAA): 17.80%
% POL in Pressed Broth of Sugarcane Crop after Application of Ripeners (80 g ai/ha, 45 DAA): 15.30%
% POL in the Cane of Sugarcane Crop after Application of Ripeners (80 g ai/ha, 45 DAA): 13.35%
% PURITY in Pressed Broth of Sugarcane Crop after Application of Ripeners (80 g ai/ha, 45 DAA): 84.05%
% BRIX in Pressed Broth of Sugarcane Crop after Application of Ripeners (100 g ai/ha, 0 DAA): 14.90%
% POL in Pressed Broth of Sugarcane Crop after Application of Ripeners (100 g ai/ha, 0 DAA): 12.50%
% POL in the Cane of Sugarcane Crop after Application of Ripeners (100 g ai/ha, 0 DAA): 10.98%
% PURITY in Pressed Broth of Sugarcane Crop after Application of Ripeners (100 g ai/ha, 0 DAA): 81.85%
% BRIX in Pressed Broth of Sugarcane Crop after Application of Ripeners (100 g ai/ha, 15 DAA): 15.30%
% POL in Pressed Broth of Sugarcane Crop after Application of Ripeners (100 g ai/ha, 15 DAA): 14.70%
% POL in the Cane of Sugarcane Crop after Application of Ripeners (100 g ai/ha, 15 DAA): 12.25%
% PURITY in Pressed Broth of Sugarcane Crop after Application of Ripeners (100 g ai/ha, 15 DAA): 83.78%
% BRIX in Pressed Broth of Sugarcane Crop after Application of Ripeners (100 g ai/ha, 30 DAA): 18.25%
% POL in Pressed Broth of Sugarcane Crop after Application of Ripeners (100 g ai/ha, 30 DAA): 15.90%
% POL in the Cane of Sugarcane Crop after Application of Ripeners (100 g ai/ha, 30 DAA): 13.83%
% PURITY in Pressed Broth of Sugarcane Crop after Application of Ripeners (100 g ai/ha, 30 DAA): 86.05%
% BRIX in Pressed Broth of Sugarcane Crop after Application of Ripeners (100 g ai/ha, 45 DAA): 18.60%
% POL in Pressed Broth of Sugarcane Crop after Application of Ripeners (100 g ai/ha, 45 DAA): 15.75%
% POL in the Cane of Sugarcane Crop after Application of Ripeners (100 g ai/ha, 45 DAA): 13.43%
% PURITY in Pressed Broth of Sugarcane Crop after Application of Ripeners (100 g ai/ha, 45 DAA): 83.38%

CCOC(=O)C1CC(=O)C(=C(O)C2CC2)C(=O)C1 (stereo not drawn) [trinexapac-ethyl, reference compound]
% BRIX in Pressed Broth of Sugarcane Crop after Application of Ripeners (250 g ai/ha, 0 DAA): 14.93%
% POL in Pressed Broth of Sugarcane Crop after Application of Ripeners (250 g ai/ha, 0 DAA): 12.75%
% POL in the Cane of Sugarcane Crop after Application of Ripeners (250 g ai/ha, 0 DAA): 11.35%
% PURITY in Pressed Broth of Sugarcane Crop after Application of Ripeners (250 g ai/ha, 0 DAA): 81.53%
% BRIX in Pressed Broth of Sugarcane Crop after Application of Ripeners (250 g ai/ha, 15 DAA): 15.15%
% POL in Pressed Broth of Sugarcane Crop after Application of Ripeners (250 g ai/ha, 15 DAA): 14.25%
% POL in the Cane of Sugarcane Crop after Application of Ripeners (250 g ai/ha, 15 DAA): 12.53%
% PURITY in Pressed Broth of Sugarcane Crop after Application of Ripeners (250 g ai/ha, 15 DAA): 83.73%
% BRIX in Pressed Broth of Sugarcane Crop after Application of Ripeners (250 g ai/ha, 30 DAA): 17.85%
% POL in Pressed Broth of Sugarcane Crop after Application of Ripeners (250 g ai/ha, 30 DAA): 15.80%
% POL in the Cane of Sugarcane Crop after Application of Ripeners (250 g ai/ha, 30 DAA): 13.45%
% PURITY in Pressed Broth of Sugarcane Crop after Application of Ripeners (250 g ai/ha, 30 DAA): 85.15%
% BRIX in Pressed Broth of Sugarcane Crop after Application of Ripeners (250 g ai/ha, 45 DAA): 18.45%
% POL in Pressed Broth of Sugarcane Crop after Application of Ripeners (250 g ai/ha, 45 DAA): 15.75%
% POL in the Cane of Sugarcane Crop after Application of Ripeners (250 g ai/ha, 45 DAA): 14.20%
% PURITY in Pressed Broth of Sugarcane Crop after Application of Ripeners (250 g ai/ha, 45 DAA): 84.78%
